For series [1] the following is noted: known from DE patent 24 07 115; cited from earlier work.
The conditions of series [2]: cited from earlier work.
Series [3] in a line: Differential scanning calorimetry: thermal stability (Example 4). It is filed as physicochemical. Conditions: DSC. On the procedure: Nicardipine hydrochloride melts at 160° C., its thermal decomposition beginning at about 200° C. Beta-cyclodextrin contains combined water, which begins to separate off the sample already at about 40° C. The dehydratation of beta-cyclodextrin is completed at about 100° C. Anhydrous beta-cyclodextrin is stable up to 270° C., when thermal decomposition starts, which becomes intensive at 300° C. The behaviour of the inclusion complex of nicardipine hydrochloride with beta-cyclodextrin at the thermoanalytical assay is quite different. After the initial slight loss of weight at temperatures below 150° C., which can be attributed to the adsorbed moisture, the substance is stable up to about 220° C, when thermal decomposition sets in. […] The DSC scans of nicardipine hydrochloride, beta-cyclodextrin, the physical mixture of nicardipine hydrochloride and beta-cyclodextrin and of the inclusion complex of nicardipine hydrochloride with beta-cyclodextrin clearly indicate the formation of the inclusion complex of nicardipine hydrochloride with beta-cyclodextrin. Thus, the differential scanning calorimetry measurements are in accordance with the powder X-ray diffraction patterns.

Results on two compounds are retold here after patent US5079237A, “Inclusion complex of nicardipine or its hydrochloride with beta-cyclodextrin and a sustained release pharmaceutical preparation containing the same” (priority 1988, dated 1992).

On to `COC(=O)C1=C(C)NC(C)=C(C(=O)OCCN(C)Cc2ccccc2)C1c1cccc([N+](=O)[O-])c1` (centres unmarked) [nicardipine, 2-(N-benzyl-N-methylamino)-ethyl methyl 2,6-dimethyl-4-(m-nitrophenyl)-1,4-dihydropyridine-3,5-dicarboxylate], for which the toxicity result in series [1] is reported as “low toxicity”. In addition, in series [2] (pH of 5 to 8), the “solubility in biological fluids” value is “poor solubility”. In addition, the water solubility entry in series [2] (water) is recorded as “unsatisfactory”.

Regarding `OC[C@H]1O[C@@H]2O[C@H]3[C@H](O)[C@@H](O)[C@@H](O[C@H]4[C@H](O)[C@@H](O)[C@@H](O[C@H]5[C@H](O)[C@@H](O)[C@@H](O[C@H]6[C@H](O)[C@@H](O)[C@@H](O[C@H]7[C@H](O)[C@@H](O)[C@@H](O[C@H]8[C@H](O)[C@@H](O)[C@@H](O[C@H]1[C@H](O)[C@H]2O)O[C@@H]8CO)O[C@@H]7CO)O[C@@H]6CO)O[C@@H]5CO)O[C@@H]4CO)O[C@@H]3CO` [beta-cyclodextrin], in series [3], the “onset of thermal decomposition (stable up to)” value worked out at 270 °C. Also, the “temperature at which thermal decomposition becomes intensive” value in series [3] (anhydrous) amounted to 300 °C.
